Laboratory results as given in US7935349B2, “CRMP4b inhibitory peptide” (The Royal Institution for the Advancement of …, priority 2006, dated 2011).

Tests used:
E13 chick DRG neurons = assay: Filopodia and neurite branch analysis of HSV-infected DRG growth cones; format: cell-based; conditions: overexpression by HSV infection
Description: E7-13 chick DRG explants were cultured in DRG media on poly-L-lysine- and laminin-coated substrates for 18 hours. For viral infections, recombinant viral preparations were added to the media 1 hour after plating. After 18 hours, cultures were treated with myelin and fixed with 4% paraformaldehyde/20% sucrose/PBS, permeabilized in 0.2% triton X-100 and double stained with polyclonal anti-RhoA antibody (Santa Cruz Biotechnology, Santa Cruz, Calif.) and anti-CRMP4b or V5 antibody. For filopodia and branch analysis, GFP and CRMP4bV5-infected growth cones were double stained with rhodamine-phalloidin (Molecular Probes, Eugene, Oreg.) and anti-V5 antibody. Filopodial length per growth cone was assessed using Image J, by measuring total filopodial length per growth cone averaged by the total number of filopodia per growth cone. Neurite branches were quantified by counting total branch buds per neurite.

[1] = target: T1, binding between FLAG-RhoA63L and myc-ROCK (Homo sapiens, UniProt P61586, Q63L); assay: Co-immunoprecipitation of FLAG-RhoA63L and myc-ROCK in co-transfected HEK293T cells; format: cell-based; conditions: FIG. 7d
T1 construct: expressed in transfected cells; host or cells: HEK293T
Description: (§1) HEK 293T cells were grown to sub-confluence and transfected with Lipofectamine 2000 according to manufacturer instructions (Invitrogen, Burlington, Ontario), washed twice with ice-cold PBS and lysed in lysis buffer A (50 mM Tris, pH 7.4, 150 mM NaCl, 1 mM EDTA, 1% (v/v) Triton X-100, 1 mM Na3VO4, 1 mM NaF, 1 mM PMSF and CØmplete protease inhibitors (Roche Diagnostics, Laval, PQ)). Lysates were pre-cleared with protein A/G-agarose (Santa Cruz Biotechnology, Santa Cruz, Calif.) and subjected to immunoprecipitation with myc-agarose or V5-agarose (Sigma Chemical Co., Oakville, Ontario). After washing 3 times with ice-cold PBS, bound protein was eluted with SDS and immunoblotted with anti-Myc (9E10, 1:1000; Sigma Chemical Co., Oakville, Ontario) or anti-V5 (1:5000; Invitrogen, Burlington, Ontario). For time course experiments, PC12 cells were transfected for 24 hours using Lipofectamine 2000 (Invitrogen, Burlington, Ontario) and differentiated with 50 ng/ml nerve growth factor (NGF; Upstate Biotechnology, Waltham, Mass.) for 24 hours. Cells were treated with Nogo-P4 peptide for the indicated period of time at 37° C. Cells were then lysed and proteins were immunoprecipitated as described above.

[2] = system: dissociated E13 chick DRG neurons; assay: Neurite outgrowth assay on laminin (control) substrate, HSV-infected neurons; format: cell-based; conditions: introduced via recombinant HSV, normalized to GFP-infected neurons, FIG. 8b, c
Description: (§2) For neurite outgrowth assays, myelin was dried down on poly-L-lysine-coated substrates. Substrates were washed and coated with 10 μg/ml laminin for 1 hr. For outgrowth on aggrecan, poly-L-lysine-coated substrates were coated with aggrecan and 10 μg/ml laminin for 2 hr at 37° C. Dissociated E13 chick DRG neurons were cultured in DRG media (F-12 medium. 10% FBS, 1% penicillin/streptomycin, 1% L-glutamine, 50 ng/ml NGF) in the presence of virus for 24 hours, fixed with 4% paraformaldehyde/20% sucrose in PBS and double stained with anti-βIII tubulin (Covance, Berkeley, Calif.) and anti-V5 antibody (Sigma Chemical Co. Oakville, Ontario). Neurite outgrowth lengths per cell were assessed using Image J, a public domain JAVA image processing program as previously described (Fournier et al., 2003).

E8 chick DRG neurons = assay: Sema3A-dependent growth cone collapse assay; format: cell-based; conditions: HSV-infected, stimulated 20 min with AP-Sema3A ligand, FIG. 8f
Description: […] Sema3A-AP or AP conditioned media was prepared as described previously (Takahashi et al., 1998). Explants were stimulated with Sema3A-AP- or AP-conditioned media at indicated concentrations for 20 min and fixed with 4% paraformaldehyde, 20% sucrose and 0.1M NaPO4. Explants were stained with rhodamine phalloidin and assessed for growth cone collapse as described (Luo et al., 1993).

CRMP4a-RhoA binding = target: T2, CRMP4a-RhoA binding (Homo sapiens, UniProt P61586); assay: CRMP-RhoA co-immunoprecipitation, CRMP4a binding to RhoA in co-transfected HEK293T cells; format: cell-based, rat; conditions: co-transfection with myc-RhoAWT and CRMP4-V5, myc-immunoprecipitation, FIG. 7c
T2 construct: expressed in transfected cells; host or cells: HEK293T
Description: as §1

CRMP4b-RhoA binding = target: T3, CRMP4b-RhoA binding (Homo sapiens, UniProt P61586); assay: CRMP-RhoA co-immunoprecipitation, full length CRMP4b binding to RhoA in co-transfected HEK293T cells; format: cell-based, rat; conditions: co-transfection with myc-RhoAWT and CRMP4-V5, myc-immunoprecipitation, FIG. 7c
T3 construct: expressed in transfected cells; host or cells: HEK293T
Description: as §1

[3] = system: dissociated E13 chick DRG neurons; assay: Neurite outgrowth assay on aggrecan substrate, HSV-infected neurons; format: cell-based; conditions: introduced via recombinant HSV, FIG. 8e
Description: as §2

[4] = system: dissociated E13 chick DRG neurons; assay: Neurite outgrowth assay on myelin substrate, HSV-infected neurons; format: cell-based; conditions: introduced via recombinant HSV, compared to GFP- or full length CRMP4b-infected neurons, FIG. 8b, d
Description: as §2

T1 sequence (P61586 1-190 Q63L limits assumed): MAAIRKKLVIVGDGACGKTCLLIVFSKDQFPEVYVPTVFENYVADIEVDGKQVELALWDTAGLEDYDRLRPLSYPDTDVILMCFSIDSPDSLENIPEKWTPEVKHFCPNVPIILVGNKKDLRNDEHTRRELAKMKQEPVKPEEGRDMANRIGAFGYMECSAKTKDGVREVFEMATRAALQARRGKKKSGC
T2 sequence (P61586 1-190 limits assumed): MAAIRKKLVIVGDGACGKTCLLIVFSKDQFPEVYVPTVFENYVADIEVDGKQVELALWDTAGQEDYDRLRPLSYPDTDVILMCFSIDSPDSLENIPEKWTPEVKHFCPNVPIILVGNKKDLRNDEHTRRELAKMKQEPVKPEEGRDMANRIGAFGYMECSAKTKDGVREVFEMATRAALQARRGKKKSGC
T3 sequence (P61586 1-190 limits assumed): as above

Question: How did the branches per neurite (E13 chick DRG neurons; average (GFP-infected: 2), FIG. 5g) turn out when “CRMP4b-V5: full length rat CRMP4b (SEQ ID NO: 1) with V5-His tag, overexpressed via HSV or plasmid” was run?
Answer: 8 branches per neurite

Question: And the “filopodia length increase versus GFP-infected growth cones” value (E13 chick DRG neurons; average, FIG. 5e, f, g)?
Answer: 70%

Question: And the “effect on binding between FLAG-RhoA63L and myc-ROCK” value [1]?
Answer: does not affect the binding between FLAG-RhoA63L and myc-ROCK

Question: And the “basal neurite outgrowth on permissive control (laminin) substrate” value [2]?
Answer: not sufficient to mimic myelin inhibitory responses

Question: For “C4RIP-V5: CRMP4b-RhoA Inhibitory Peptide: first 126 residues of the unique amino terminal domain of CRMP4b (SEQ ID NO: 2), fused to a V5-epitope tag”, which “Sema3A-dependent growth cone collapse” value (E8 chick DRG neurons) is on record?
Answer: no effect on Sema3A-dependent growth cone collapse

Question: And the “effect on RhoA binding to CRMP4a” value (CRMP4a-RhoA binding)?
Answer: without affecting binding to CRMP4a

Question: And the “effect on RhoA binding to full length CRMP4b” value (CRMP4b-RhoA binding)?
Answer: significantly diminishes RhoA binding to full length CRMP4b

Question: And the “neurite outgrowth on aggrecan” value [3]?
Answer: promotes neurite outgrowth on aggrecan

Question: And the “effect on binding between FLAG-RhoA63L and myc-ROCK” value [1]?
Answer: does not diminish binding between FLAG-RhoA63L and myc-ROCK

Question: And the “basal neurite outgrowth on permissive control (laminin) substrate” value [2]?
Answer: does not promote basal DRG outgrowth on permissive control substrates

Question: And the “neurite outgrowth on myelin substrate (myelin-dependent outgrowth inhibition)” value [4]?
Answer: significantly attenuates myelin-dependent outgrowth inhibition
